From US12227494B2, “Polymorphisms of HM30181 mesylate” (ATHENEX R&D, LLC, priority 2020, dated 2025)
“Also recorded” adds a separate entry of the source.

Legend:
[1] = XRPD of polymorphs after air-drying or vacuum-drying (solid form stability); assay type: physicochemical; settings: for Crystallinity / XRPD pattern after air-drying: air-dried (overnight); for Crystallinity / XRPD pattern after vacuum-drying: vacuum dried overnight (80° C.)
Method: Large scale studies were performed with HM30181 mesylate Type A starting material on a 200 mg scale as described below. Solids were isolated by vacuum filtration. The wet cakes from filtration from DMA, DMF, and NMP slurries were washed with 1 mL to 2 mL methanol to remove solvents. […]
XRPD was performed using a Panalytical X'Pert3™ Powder XRPD and on a Si zero-background holder. The 2θ position was calibrated against a Panalytical™ 640 Si powder standard. Details of XRPD used in the experiments are listed below in Table 20.

[2] = 1H-NMR check for disproportionation or degradation; assay type: physicochemical; settings: large scale polymorph samples, DMSO-d6
Text: At large scale, a slurry of HM30181 mesylate Type A starting material in methanol at ambient conditions generated a mixture of HM30181 mesylate Type B and HM30181 mesylate Type A after 9 days (see FIG. 32). After 14 days, the slurry in methanol generated a HM30181 mesylate Type N polymorph. […] A scaled-up slurry of HM30181 mesylate Type A starting material in DMA yielded HM30181 mesylate Type E after 6 days (see FIG. 35). […] A scaled-up slurry of HM30181 mesylate Type A starting material in DMF at 50° C. yielded HM30181 mesylate Type F rather than the expected HM30181 mesylate Type G after 9 days (see FIG. 36). […] This slurry was heated in an attempt to generate HM30181 mesylate Type G. A scaled-up slurry of HM30181 mesylate Type A starting material in DMF at 100° C. yielded HM30181 mesylate Type F after 2 days (see FIG. 37). A scaled-up slurry of HM30181 mesylate Type A starting material in DMF at 150° C. yielded a previously unobserved XRPD pattern after 5 days (see FIG. 37).
By 1H-NMR, HM30181 mesylate Type E contained DMA, HM30181 mesylate Type F contains DMF, and HM30181 mesylate Type N contains MeOH.
Proton NMR were obtained using a Varian 200M™ NMR in deuterated DMSO (DMSO-d6).

Row | SMILES | Crystallinity / XRPD pattern after air-drying [1] | Crystallinity / XRPD pattern after vacuum-drying [1] | Disproportionation or degradation by 1H-NMR [2] | Crystallinity / XRPD pattern after air-drying ([1]; listed as Type I)
1 | COc1cc2c(cc1OC)CN(CCc1ccc(-n3nnc(-c4cc(OC)c(OC)cc4NC(=O)c4cc(=O)c5ccccc5o4)n3)cc1)CC2.CS(=O)(=O)O [HM30181 mesylate Type C, HM30181 mesylate] | no significant change | no loss of crystallinity was detected; also recorded: No change in crystalline pattern | no disproportionation or degradation was detected | –
2 | COc1cc2c(cc1OC)CN(CCc1ccc(-n3nnc(-c4cc(OC)c(OC)cc4NC(=O)c4cc(=O)c5ccccc5o4)n3)cc1)CC2.CS(=O)(=O)O [HM30181 mesylate Type D, HM30181 mesylate] | Some loss of crystallinity; also recorded: No change in crystalline pattern | – | – | –
3 | COc1cc2c(cc1OC)CN(CCc1ccc(-n3nnc(-c4cc(OC)c(OC)cc4NC(=O)c4cc(=O)c5ccccc5o4)n3)cc1)CC2.CS(=O)(=O)O [HM30181 mesylate Type E, HM30181 mesylate] | – | no loss of crystallinity; also recorded: No change in crystalline pattern | no disproportionation or degradation was detected | –
4 | COc1cc2c(cc1OC)CN(CCc1ccc(-n3nnc(-c4cc(OC)c(OC)cc4NC(=O)c4cc(=O)c5ccccc5o4)n3)cc1)CC2.CS(=O)(=O)O [HM30181 mesylate Type F, HM30181 mesylate] | – | Some change of pattern; also recorded: significant reduction in crystallinity | no disproportionation or degradation was detected | –
5 | COc1cc2c(cc1OC)CN(CCc1ccc(-n3nnc(-c4cc(OC)c(OC)cc4NC(=O)c4cc(=O)c5ccccc5o4)n3)cc1)CC2.CS(=O)(=O)O [HM30181 mesylate Type G, HM30181 mesylate] | No reduction in crystallinity | – | – | –
6 | COc1cc2c(cc1OC)CN(CCc1ccc(-n3nnc(-c4cc(OC)c(OC)cc4NC(=O)c4cc(=O)c5ccccc5o4)n3)cc1)CC2.CS(=O)(=O)O [HM30181 mesylate Type I, HM30181 mesylate] | yielded HM30181 mesylate Type J | – | – | Type J on air-drying
7 | COc1cc2c(cc1OC)CN(CCc1ccc(-n3nnc(-c4cc(OC)c(OC)cc4NC(=O)c4cc(=O)c5ccccc5o4)n3)cc1)CC2.CS(=O)(=O)O [HM30181 mesylate Type N, HM30181 mesylate] | – | some loss of crystallinity | no disproportionation or degradation was detected | –
